From paper PMC8908036, “N-Acetyldopamine dimers from Oxya chinensis sinuosa attenuates lipopolysaccharides induced inflammation and inhibits cathepsin C activity” (Computational and Structural Biotechnology Journal, 2022) come the findings set out here.

The target in this experiment is T1, cathepsin C (Mus musculus, UniProt P97821).
T1 construct: gene Ctsc
In words: colorimetric enzyme inhibition with H-Gly-Phe-β-naphthylamide; Lineweaver-Burk kinetics and secondary plots (IC50 […]; Kis […]). It counts as biochemical.

T1 sequence (P97821 25-134): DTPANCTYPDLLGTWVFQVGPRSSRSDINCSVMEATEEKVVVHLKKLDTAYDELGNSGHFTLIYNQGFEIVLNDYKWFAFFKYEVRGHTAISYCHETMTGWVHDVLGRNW
T1 sequence (P97821 231-462): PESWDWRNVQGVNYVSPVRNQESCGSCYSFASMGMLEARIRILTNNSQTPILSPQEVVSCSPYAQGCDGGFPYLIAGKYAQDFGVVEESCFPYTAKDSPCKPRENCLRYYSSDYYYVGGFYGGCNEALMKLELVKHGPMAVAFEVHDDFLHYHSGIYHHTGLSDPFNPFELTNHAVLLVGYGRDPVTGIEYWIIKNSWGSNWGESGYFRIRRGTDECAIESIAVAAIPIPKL

In general, Ki refers to the equilibrium dissociation constant of an inhibitor or competing ligand from its target. A high value points to a looser hold on the target. As for `CC(=O)NCCc1ccc2c(c1)O[C@H](c1ccc(O)c(O)c1)[C@@H](NC(C)=O)O2` [compound 1, (2R,3S)-2-(3′,4′-dihydroxyphenyl)-3-acetylamino-7-(N-acetyl-2″-aminoethyl)-1,4-benzodioxane], affinity was put at a Ki of 71.6 ± 10.2 µM.
